According to US20220119866A1 (priority 2019, published 2022):
Read-outs that look alike come from different tables or passages of the source.

How the values were obtained:
[1] = system: Clostridium difficile clade2 strains; assay type: cell-based; conditions: for Resistance rate to Category 1 (70 strains) / Resistance rate to Category 2 (96 strains) / Resistance rate to Category 3 (217 strains): 383 clade2 strains; for Average resistance rate: all 383 clade2 strains
[2] = system: Clostridium difficile hypervirulent ribotype 027 (RT027) strains; test: drug sensitivity test, resistance rate of 269 RT027 strains; assay type: cell-based; conditions: for Resistance rate to Category 1 (56 strains) / Resistance rate to Category 2 (23 strains) / Resistance rate to Category 3 (190 strains): 269 RT027 strains; for Resistance rate to Category 2 (23 strains): Category 2 (sensitive branch); for Average resistance rate: all 269 RT027 strains

SMILES | Resistance rate to Category 1 (70 strains) [1] | Resistance rate to Category 2 (96 strains) [1] | Resistance rate to Category 2 (96 strains) ([1]; listed as metronidazole) | Resistance rate to Category 3 (217 strains) [1] | Average resistance rate [1] | Resistance rate to Category 1 (56 strains) [2] | Resistance rate to Category 2 (23 strains) [2] | Resistance rate to Category 2 (23 strains) ([2]; listed as metronidazole) | Resistance rate to Category 3 (190 strains) [2] | Average resistance rate [2] | Resistance rate to Category 2 (96 strains) ([1]; listed as vancomycin) | Resistance rate to Category 3 (217 strains) ([1]; listed as vancomycin) | Resistance rate to Category 2 (23 strains) ([2]; listed as vancomycin) | Resistance rate to Category 3 (190 strains) ([2]; listed as vancomycin)
Cc1ncc([N+](=O)[O-])n1CCO [Metronidazole, metronidazole] | 52.86% | 3.13% | 3.03% | 48.39% | 37.86% | 51.79% | 0.0% | 0.0% | 47.37% | 44.24% |  |  |  | 
CN[C@H](CC(C)C)C(=O)N[C@H]1C(=O)N[C@@H](CC(N)=O)C(=O)N[C@H]2C(=O)N[C@H]3C(=O)N[C@H](C(=O)N[C@H](C(=O)O)c4cc(O)cc(O)c4-c4cc3ccc4O)[C@H](O)c3ccc(c(Cl)c3)Oc3cc2cc(c3O[C@@H]2O[C@H](CO)[C@@H](O)[C@H](O)[C@H]2O[C@H]2C[C@](C)(N)[C@H](O)[C@H](C)O2)Oc2ccc(cc2Cl)[C@H]1O [Vancomycin, vancomycin] | 92.86% | 30.21% |  | 22.58% | 37.34% | 94.64% | 21.74% |  | 21.05% | 36.43% | 30.21% | 22.58% | 21.74% | 21.05%
